Measurements as given in patent publication US20240025863A1, “SOS1 PROTEIN DEGRADERS, PHARMACEUTICAL COMPOSITIONS THEREOF, AND THEIR THERAPEUTIC APPLICATIONS” (BioTheryX, Inc., priority 2020, published 2024).

How the values were obtained:
Type in all cases: cell-based
H358 cells (G12C) = test: Cell viability assay (CellTiter-Glo), H358 cells; details: Homo sapiens, NCI-H358, 72 h; H358 cells, 3 days incubation, CellTiter-Glo luminescence; read-out: Inhibition of Cancerous Cells IC50 H358 (G12C)
In short: (§1)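 3 d compound vs DMSO, 37 °C, 5% CO2; medium 2.5% FBS (RPMI 1640: H358, SW48; DMEM: Lovo, SW480). Seeding 2,000 (96-well) or 500 (384-well) cells/well, Lovo 4,000/1,000. Read-out: CellTiter-Glo luminescence.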

H23 cells = test: Cell viability assay (CellTiter-Glo), H23 cells; details: Homo sapiens, NCI-H23, 72 h; H23 cells, 3 days incubation, CellTiter-Glo luminescence; read-out: Inhibition of Cancerous Cells IC50 H23
Procedure: H358, H23, SW48, and AsPC-1 cells were cultured in RPMI 1640 media supplemented with 10% fetal bovine serum, streptomycin, and penicillin. Lovo and SW480 cells were cultured in DMEM media supplemented with 10% fetal bovine serum, streptomycin, and penicillin. The cell lines were plated in their respective medium supplemented with 2.5% fetal bovine serum, streptomycin, and penicillin. All cell lines were plated in white walled 96-well plates at 2,000 cells/well or 384-well plates at 500 cells/well, except Lovo, which were plated at 4,000 or 1,000 cells/well, respectively. The cells were incubated in DMSO (control) or a compound for 3 days at 37° C. under 5% CO2. A CELLTITER-GLO® reagent (100 μL) was then added to each well. After a 10 min incubation with shaking, luminescence was measured using an ENVISION® multimode plate reader.

AsPC-1 cells (G12D) = test: Cell viability assay (CellTiter-Glo), AsPC-1 cells; details: Homo sapiens, ASPC1, 72 h, 3 days incubation, CellTiter-Glo luminescence, read-out: Inhibition of Cancerous Cells IC50 AsPC-1 (G12D)
In short: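 Viability is measured by CellTiter-Glo luminescence following a 3-day compound incubation at 37 °C in medium with 2.5% FBS.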

Lovo cells (G13D) = test: Cell viability assay (CellTiter-Glo), Lovo cells; details: Homo sapiens, 72 h; Lovo cells, 3 days incubation, CellTiter-Glo luminescence; read-out: Inhibition of Cancerous Cells IC50 Lovo (G13D)
In short: as §1

SW480 cells (G12V) = test: Cell viability assay (CellTiter-Glo), SW480 cells; details: Homo sapiens, 72 h; SW480 cells, 3 days incubation, CellTiter-Glo luminescence; read-out: Inhibition of Cancerous Cells IC50 SW480 (G12V)
In short: as §1

SW48 cells (wt) = test: Cell viability assay (CellTiter-Glo), SW48 cells; details: Homo sapiens, 72 h; SW48 cells, 3 days incubation, CellTiter-Glo luminescence; read-out: Inhibition of Cancerous Cells IC50 SW48 (wt)
In short: as §1

Compound	IC50 (H358 cells (G12C))	IC50 (H23 cells)	IC50 (AsPC-1 cells (G12D))	IC50 (Lovo cells (G13D))	IC50 (SW480 cells (G12V))	IC50 (SW48 cells (wt))
COc1cc2c(N[C@H](C)c3cccc(Br)c3)nc(C)nc2cc1OCCOCCOCCOCCNc1cccc2c1C(=O)N(C1CCC(=O)NC1=O)C2=O (stereo partly drawn) [Compound A4, 4-((2-(2-(2-(2-((4-(((R)-1-(3-bromophenyl)ethyl)amino)-6-methoxy-2-methylquinazolin-7-yl)oxy)ethoxy)ethoxy)ethoxy)ethyl)amino)-2-(2,6-dioxopiperidin-3-yl)isoindoline-1,3-dione]	7200 nM	9000 nM				
COc1cc2c(N[C@H](C)c3cccc(Br)c3)nc(C)nc2cc1OCCCCCCCCCN1CCC(c2cc(F)cc3c2CN(C2CCC(=O)NC2=O)C3=O)CC1 (stereo partly drawn) [Compound A12, 3-(4-(1-(9-((4-(((R)-1-(3-Bromophenyl)ethyl)amino)-6-methoxy-2-methyl-quinazolin-7-yl)oxy)nonyl)piperidin-4-yl)-6-fluoro-1-oxoisoindolin-2-yl)piperidine-2,6-dione]	1400 nM	1200 nM				
COc1cc2c(N[C@H](C)c3cccc(Br)c3)nc(C)nc2cc1OC1CCN(CCCCN2CCC(c3cc(F)cc4c3CN(C3CCC(=O)NC3=O)C4=O)CC2)CC1 (stereo partly drawn) [Compound A18, 3-(4-(1-(4-(4-((4-(((R)-1-(3-Bromophenyl)ethyl)amino)-6-methoxy-2-methyl-quinazolin-7-yl)oxy)piperidin-1-yl)butyl)piperidin-4-yl)-6-fluoro-1-oxoisoindolin-2-yl)-piperidine-2,6-dione]	3000 nM	2600 nM				
COc1cc2nc(C)nc(N[C@H](C)c3cccc(Br)c3)c2cc1OCCCCCCCN1CCC(c2cc(F)cc3c2CN(C2CCC(=O)NC2=O)C3=O)CC1 (stereo partly drawn) [Compound A19, 3-(4-(1-(7-((4-(((R)-1-(3-Bromophenyl)ethyl)amino)-7-methoxy-2-methyl-quinazolin-6-yl)oxy)heptyl)piperidin-4-yl)-6-fluoro-1-oxoisoindolin-2-yl)piperidine-2,6-dione]	1700 nM	1900 nM				
COc1cc2c(N[C@H](C)c3cccc(Br)c3)nc(C)nc2cc1OCCCCCCCN1CCC(c2cc3c(cc2F)C(=O)N(C2CCC(=O)NC2=O)C3)CC1 (stereo partly drawn) [Compound A22, 3-(5-(1-(7-((4-(((R)-1-(3-bromophenyl)ethyl)amino)-6-methoxy-2-methylquinazolin-7-yl)oxy)heptyl)piperidin-4-yl)-6-fluoro-1-oxoisoindolin-2-yl)piperidine-2,6-dione]	790 nM	900 nM				
COc1cc2c(N[C@H](C)c3cccc(Br)c3)nc(C)nc2cc1OCCOCCOCCNc1cccc2c1C(=O)N(C1CCC(=O)NC1=O)C2=O (stereo partly drawn) [Compound A36, 4-((2-(2-(2-((4-(((R)-1-(3-Bromophenyl)ethyl)amino)-6-methoxy-2-methyl-quinazolin-7-yl)oxy)ethoxy)ethoxy)ethyl)amino)-2-(2,6-dioxopiperidin-3-yl)isoindoline-1,3-dione]	8800 nM	8300 nM				
COc1cc2c(N[C@H](C)c3cccc(Br)c3)nc(C)nc2cc1OCCCCCCCNCc1ccc(OCc2scc3c2CN(C2CCC(=O)NC2=O)C3=O)cc1 (stereo partly drawn) [Compound A41, 3-(1-((4-(((7-((4-(((R)-1-(3-Bromophenyl)ethyl)amino)-6-methoxy-2-methyl-quinazolin-7-yl)oxy)heptyl)amino)methyl)phenoxy)methyl)-4-oxo-4H-thieno[3,4-c]pyrrol-5(6H)-yl)piperidine-2,6-dione]	1500 nM	1300 nM				
CN[C@@H](C)C(=O)N[C@H](C(=O)N1C[C@@H](NC(=O)CCCCCCCCOc2cc3nc(C)nc(N[C@H](C)c4cccc(Br)c4)c3cc2OC)C[C@H]1C(=O)N[C@@H]1CCCc2ccccc21)C1CCCCC1 [Compound B12, (2S,4S)-4-(9-((4-(((R)-1-(3-Bromophenyl)ethyl)amino)-6-methoxy-2-methyl-quinazolin-7-yl)oxy)nonanamido)-1-((S)-2-cyclohexyl-2-((S)-2-(methylamino)propanamido)-acetyl)-N—((R)-1,2,3,4-tetrahydronaphthalen-1-yl)pyrrolidine-2-carboxamide]	1100 nM		2700 nM	800 nM	450 nM	460 nM
COc1cc2c(N[C@H](C)c3cccc(Br)c3)nc(C)nc2cc1OCCCCCCCCC(=O)N[C@H](C(=O)N1C[C@H](O)C[C@H]1C(=O)NCc1ccc(-c2scnc2C)cc1)C(C)(C)C [Compound D2, (2S,4R)-1-((S)-2-(9-((4-(((R)-1-(3-bromophenyl)ethyl)amino)-6-methoxy-2-methylquinazolin-7-yl)oxy)nonanamido)-3,3-dimethylbutanoyl)-4-hydroxy-N-(4-(4-methylthiazol-5-yl)benzyl)pyrrolidine-2-carboxamide]	15000 nM	13000 nM				
COc1cc2c(N[C@@H](C)c3cccs3)nc(C)nc2cc1OCCCCCCCCC(=O)N[C@H](C(=O)N1C[C@H](O)C[C@H]1C(=O)NCc1ccc(-c2scnc2C)cc1)C(C)(C)C [Compound D6, (2S,4R)-4-Hydroxy-1-((S)-2-(9-((6-methoxy-2-methyl-4-(((S)-1-(thiophen-2-yl)ethyl)amino)quinazolin-7-yl)oxy)nonanamido)-3,3-dimethylbutanoyl)-N-(4-(4-methylthiazol-5-yl)benzyl)pyrrolidine-2-carboxamide]	6100 nM	2700 nM				
CNCc1ccccc1-c1csc([C@@H](C)Nc2nc(C)nc3cc(OCCCCCCCCC(=O)N[C@H](C(=O)N4C[C@H](O)C[C@H]4C(=O)NCc4ccc(-c5scnc5C)cc4)C(C)(C)C)c(OC)cc23)c1 [Compound D9, (2S,4R)-4-hydroxy-1-((S)-2-(9-((6-methoxy-2-methyl-4-(((R)-1-(4-(2-((methylamino)methyl)phenyl)thiophen-2-yl)ethyl)amino)quinazolin-7-yl)oxy)nonanamido)-3,3-dimethylbutanoyl)-N-(4-(4-methylthiazol-5-yl)benzyl)pyrrolidine-2-carboxamide]	970 nM	1000 nM				
CNCc1ccccc1-c1csc([C@H](C)Nc2nc(C)nc3cc(OCCCCCCCCC(=O)N[C@H](C(=O)N4C[C@H](O)C[C@H]4C(=O)NCc4ccc(-c5scnc5C)cc4)C(C)(C)C)c(OC)cc23)c1 [Compound D10, (2S,4R)-4-hydroxy-1-((S)-2-(9-((6-methoxy-2-methyl-4-(((S)-1-(4-(2-((methylamino)methyl)phenyl)thiophen-2-yl)ethyl)amino)quinazolin-7-yl)oxy)nonanamido)-3,3-dimethylbutanoyl)-N-(4-(4-methylthiazol-5-yl)benzyl)pyrrolidine-2-carboxamide]	750 nM	930 nM				
COc1cc2c(N[C@H](C)c3cccc(Br)c3)nc(C)nc2cc1OCCCCCCCOc1cc(-c2scnc2C)ccc1CNC(=O)[C@@H]1C[C@@H](O)CN1C(=O)[C@@H](NC(C)=O)C(C)(C)C [Compound D11, (2S,4R)-1-((S)-2-Acetamido-3,3-dimethylbutanoyl)-N-(2-((7-((4-(((R)-1-(3-bromophenyl)ethyl)amino)-6-methoxy-2-methylquinazolin-7-yl)oxy)heptyl)oxy)-4-(4-methylthiazol-5-yl)benzyl)-4-hydroxypyrrolidine-2-carboxamide]	1600 nM		> 10000 nM	2600 nM	1200 nM	5900 nM
COc1cc2c(N[C@H](C)c3cccc(Br)c3)nc(C)nc2cc1OCCCCCCCCCCCCCOc1cc(-c2scnc2C)ccc1CNC(=O)[C@@H]1C[C@@H](O)CN1C(=O)[C@@H](NC(C)=O)C(C)(C)C [Compound D14, (2S,4R)-1-((S)-2-Acetamido-3,3-dimethylbutanoyl)-N-(2-((13-((4-(((R)-1-(3-bromophenyl)ethyl)amino)-6-methoxy-2-methylquinazolin-7-yl)oxy)tridecyl)oxy)-4-(4-methyl-thiazol-5-yl)benzyl)-4-hydroxypyrrolidine-2-carboxamide]	> 10000 nM		> 10000 nM	640 nM	3300 nM	> 10000 nM
CNCc1ccccc1-c1csc([C@@H](C)Nc2nc(C)nc3cc(OC)c(OC)cc23)c1 [reference compound]	2100 nM	1500 nM				
CNCc1ccccc1-c1csc([C@H](C)Nc2nc(C)nc3cc(OC)c(OC)cc23)c1 [reference compound]	2400 nM	2300 nM				
